Source: US20240269350A1, “I[…] FOR TREATING CENTRAL NERVOUS SYSTEM DISORDERS” (priority 2021, published 2024)
Like-named read-outs stand apart in the source and are kept apart here.

Key:
[1] = approved oral, patch or i.v. administration; cited from earlier work
[2] = oral administration, cited from earlier work; for AUC1-12h cerebral spinal fluid (CSF)/plasma ratio: mean
[3] = Oral rivastigmine pharmacokinetics and estimated delivery to CSF (Exelon label); assay type: in vivo; settings: for daily dose delivered to CSF: plasma volume 2750 mL, CSF volume 150 mL
Method: Drug coating and formulation development. The absolute bioavailability of oral rivastigmine is approximately 40%, and the AUC1-12h cerebral spinal fluid (CSF)/plasma ratio is about 40% (Novartis Exelon® Capsules and Oral Solution Prescribing Information). An estimated 0.87% of the rivastigmine oral dose is absorbed and distributed into the CSF. Thus, the daily CSF uptake of this drug is estimated to be between 26-105 μg. As a starting point for the formulation development, we will first target to formulate a matrix loaded with rivastigmine which will be released over 30 days in a near linear manner. Bilateral administration of the rivastigmine matrix would result in approximately 21-107 μg rivastigmine delivered to CSF/day, assuming a CSF bioavailability between 10-50%.
For oral administration, delivery, an absolute bioavailability of Rivastigmine is about 40% and a mean AUC (area under the curve) 1-12 hr CSF/Plasma is about 40% (Exelon Label). The daily doses delivered to CSF are 26 μg/day, 52 μg/day, 79 μg/day, and 105 μg/day for the oral doses, equating to 1.5 mg BID, 3 mg BID, 4.5 mg BID, and 6 mg BID, respectively. For this estimation, a plasma volume of 2750 mL and a CSF volume of 150 mL are used.

[4] = tartrate salt form; cited from earlier work

SMILES	Side effects [1]	AUC1-12h cerebral spinal fluid (CSF)/plasma ratio [2]	AUC1-12h cerebral spinal fluid (CSF)/plasma ratio ([2]; listed as rivastigmine)	absolute bioavailability [2]	absolute bioavailability ([2]; listed as rivastigmine)	daily dose delivered to CSF ([3]; oral 1.5 mg BID)	daily dose delivered to CSF ([3]; oral 3 mg BID)	daily dose delivered to CSF ([3]; oral 4.5 mg BID)	daily dose delivered to CSF ([3]; oral 6 mg BID)	fraction of oral dose absorbed and distributed into the CSF ([3]; oral dose, estimated)	daily CSF uptake ([3]; oral dosing, estimated)	water solubility [4]
CC12CC3CC(C)(C1)CC(N)(C3)C2 [Memantine]	Headache, constipation,											
CCN(C)C(=O)Oc1cccc([C@H](C)N(C)C)c1 [Rivastigmine]		about 40%	approximately 40%	about 40%	approximately 40%	26 µg/day	52 µg/day	79 µg/day	105 µg/day	0.87%	26 to 105 µg	highly water-soluble
